# Assay results from US10829796B2, “Bacteria identification and antimicrobial susceptibility test” (priority 2015, dated 2020).
# Test system: bacteria in clinical bovine mastitis milk samples
# Assay: Combined bacteria identification and antimicrobial susceptibility test (colour of wells, MIC) on clinical bovine mastitis milk samples
# Format: cell-based
# Procedure: Clinical bovine mastitis milk samples were collected by a vet clinic in South Island, New Zealand. Samples were stored in the freezer for several months and shipped frozen to the testing facility. In this Example, the term “clinical” means that dairy cows had clinical symptoms of an udder infection e.g. cow behaved unusual, milk clots, swollen udder among other typical symptoms. Testing was executed in microwell plate comprising of 24 wells (3×8 wells).
# In addition, 20 ul of clinical mastitis sample was added to each well with a laboratory pipette.
# (§1) Abbreviations • 1. 80 ul GC+10 ul Tell: 80 ul Giolitti Cantoni base broth+10 ul Tellurite solution (1%); • 2. 80 ul TSB/Esc/Fer Cit: 80 ul Tryptic soy broth containing 0.25% Esculin and 0.125% Ammonium Ferric Citrate; • 3. 80 ul TSB/Esc/Fer Cit+10 ul Genta: 80 ul Tryptic soy broth containing 0.25% Esculin and 0.125% Ammonium Ferric Citrate+10 ul of Gentamycin solution 10 mg/ml; • 4. 80 ul McC/PR25: 80 ul MacConkey broth (single strength) containing 0.0125% phenol red; and • 5. 80 ul TSB/PR25: 80 ul Tryptic soy broth containing 0.0125% phenol red. Bacteria Identification
# Columns A to C and rows 1 and 2 were used for bacteria identification. A1: coagulase positive Staph; A2: Staphylococci; B1: Strep group D; B2: Strep group D; C1: general enrichment media (gram+ and gram-bacteria); C2: coliform bacteria.
# Column A3 to A8: serial dilution of benzyl penicillin as potassium. Column B3 to B8: serial dilution of ceftiofur as hydrochloride. Column C3 to C8: serial dilution of cloxacillin as sodium. Antibiotic concentrations are listed as free form ranging between 4 ug/ml to 0.05 ug/ml.
# Minimum inhibitory substance concentration (MIC) is here defined as the concentration if a colour change occurs between two wells (one well remains red with drug concentration 1, the other one yellow with drug concentration 2, whereas drug concentration 1 is larger than drug concentration 2) then the MIC is the value of drug concentration 1.
# Table 21 indicates the microwell plate configuration #1; Drugs: Benzylpenicillin as potassium; Cloxacillin as sodium; Ceftiofur as hydrochloride; Drug concentration in each well (A3 to C8) is based on 80 μl composition+10 μl drug solution+20 μl clinical mastitis milk sample and equivalent to listed drug concentration in μg/ml; 20 ul of clinical bovine mastitis milk sample was added to each well (A1 to C8).
# In addition, each well received one drop of clinical sample from a transfer pipette which was on average about 35 mg. This was determined through weighing the well plate prior and after the addition of clinical mastitis samples. This weight was then divided by 24.
# as §1, with “•” for “Abbreviations •”, “red.” for “red. Bacteria Identification”
# Columns A to C and rows 1 and 2 were used for bacteria identification. A1: coagulase positive Staph; A2: Staphylococci; B1: Strep Group D; B2: -; C1: general enrichment media (gram+ and gram-); C2: coliform bacteria.
# Column A3 to A8: serial dilution of benzyl penicillin as potassium. Drug concentrations given as free form ranging between 4 ug/ml to 0.05 ug/ml. Column B3 to B8: serial dilution of ceftiofur as hydrochloride. Drug concentrations given as free form ranging between 4 ug/ml to 0.05 ug/ml. Column C3 to C8: serial dilution of cloxacillin as sodium. Drug concentrations given as free form ranging between 4 ug/ml to 0.05 ug/ml.
smiles,measurement,setting,value
CC1(C)S[C@@H]2[C@H](NC(=O)Cc3ccccc3)C(=O)N2[C@H]1C(=O)O [benzyl penicillin],Colour of media in each well,"ID 5 to 8, T = 0 h (prior incubation, reference), plate configuration #2, drug 1 μg/ml",red
same,Colour of media in each well,"ID 5 to 8, T = 0 h (prior incubation, reference), plate configuration #2, drug 2 μg/ml",red
same,Colour of media in each well,"ID 5 to 8, T = 0 h (prior incubation, reference), plate configuration #2, drug 4 μg/ml",red
same,Colour of media in each well,"ID 6, T = 23h, 37° C., plate configuration #2, drug 0.05 μg/ml (Table 31)",yellow
same,Colour of media in each well,"ID 6, T = 23h, 37° C., plate configuration #2, drug 0.1 μg/ml (Table 31)",yellow
same,Colour of media in each well,"ID 6, T = 23h, 37° C., plate configuration #2, drug 0.5 μg/ml (Table 31)",yellow
same,Colour of media in each well,"ID 6, T = 23h, 37° C., plate configuration #2, drug 1 μg/ml (Table 31)",yellow
same,Colour of media in each well,"ID 6, T = 23h, 37° C., plate configuration #2, drug 2 μg/ml (Table 31)",yellow
same,Colour of media in each well,"ID 6, T = 23h, 37° C., plate configuration #2, drug 4 μg/ml (Table 31)",yellow
same,Colour of media in each well,"ID 6, T~7 h, 37° C., plate configuration #2, Table 35, drug 0.05 μg/ml",yellow
same,Colour of media in each well,"ID 6, T~7 h, 37° C., plate configuration #2, Table 35, drug 0.1 μg/ml",yellow
same,Colour of media in each well,"ID 6, T~7 h, 37° C., plate configuration #2, Table 35, drug 0.5 μg/ml",yellow
same,Colour of media in each well,"ID 6, T~7 h, 37° C., plate configuration #2, Table 35, drug 1 μg/ml",yellow
same,Colour of media in each well,"ID 6, T~7 h, 37° C., plate configuration #2, Table 35, drug 2 μg/ml",yellow
same,Colour of media in each well,"ID 6, T~7 h, 37° C., plate configuration #2, Table 35, drug 4 μg/ml",yellow
same,Colour of media in each well,"ID 6, T~11 h, 37° C., plate configuration #2, Table 35, drug 0.05 μg/ml",yellow
same,Colour of media in each well,"ID 6, T~11 h, 37° C., plate configuration #2, Table 35, drug 0.1 μg/ml",yellow
same,Colour of media in each well,"ID 6, T~11 h, 37° C., plate configuration #2, Table 35, drug 0.5 μg/ml",yellow
same,Colour of media in each well,"ID 6, T~11 h, 37° C., plate configuration #2, Table 35, drug 1 μg/ml",yellow
same,Colour of media in each well,"ID 6, T~11 h, 37° C., plate configuration #2, Table 35, drug 2 μg/ml",yellow
same,Colour of media in each well,"ID 6, T~11 h, 37° C., plate configuration #2, Table 35, drug 4 μg/ml",yellow
same,Colour of media in each well,"ID 6, T~23 h, 37° C., plate configuration #2, Table 35, drug 0.05 μg/ml",yellow
same,Colour of media in each well,"ID 6, T~23 h, 37° C., plate configuration #2, Table 35, drug 0.1 μg/ml",yellow
same,Colour of media in each well,"ID 6, T~23 h, 37° C., plate configuration #2, Table 35, drug 0.5 μg/ml",yellow
same,Colour of media in each well,"ID 6, T~23 h, 37° C., plate configuration #2, Table 35, drug 1 μg/ml",yellow
same,Colour of media in each well,"ID 6, T~23 h, 37° C., plate configuration #2, Table 35, drug 2 μg/ml",yellow
same,Colour of media in each well,"ID 6, T~23 h, 37° C., plate configuration #2, Table 35, drug 4 μg/ml",yellow
same,Colour of media in each well,"ID 7, T = 23h, 37° C., plate configuration #2, drug 0.05 μg/ml",yellow
same,Colour of media in each well,"ID 7, T = 23h, 37° C., plate configuration #2, drug 0.1 μg/ml",yellow
same,Colour of media in each well,"ID 7, T = 23h, 37° C., plate configuration #2, drug 0.5 μg/ml",red
same,Colour of media in each well,"ID 7, T = 23h, 37° C., plate configuration #2, drug 1 μg/ml",red
same,Colour of media in each well,"ID 7, T = 23h, 37° C., plate configuration #2, drug 2 μg/ml",red
same,Colour of media in each well,"ID 7, T = 23h, 37° C., plate configuration #2, drug 4 μg/ml",red
same,Colour of media in each well,"ID 8, T = 23 h, 37° C., plate configuration #2, drug 0.05 μg/ml",red
same,Colour of media in each well,"ID 8, T = 23 h, 37° C., plate configuration #2, drug 0.1 μg/ml",red
same,Colour of media in each well,"ID 8, T = 23 h, 37° C., plate configuration #2, drug 0.5 μg/ml",red
same,Colour of media in each well,"ID 8, T = 23 h, 37° C., plate configuration #2, drug 1 μg/ml",red
same,Colour of media in each well,"ID 8, T = 23 h, 37° C., plate configuration #2, drug 2 μg/ml",red
same,Colour of media in each well,"ID 8, T = 23 h, 37° C., plate configuration #2, drug 4 μg/ml",red
same,Colour of media in each well,"Table 24, sample ID 2, 22 hours at 37° C., plate configuration #1, row 3 of serial dilution 4 ug/ml to 0.05 ug/ml",orange
same,Colour of media in each well,"Table 24, sample ID 2, 22 hours at 37° C., plate configuration #1, row 4 of serial dilution 4 ug/ml to 0.05 ug/ml",orange
same,Colour of media in each well,"Table 24, sample ID 2, 22 hours at 37° C., plate configuration #1, row 5 of serial dilution 4 ug/ml to 0.05 ug/ml",orange
same,Colour of media in each well,"Table 24, sample ID 2, 22 hours at 37° C., plate configuration #1, row 6 of serial dilution 4 ug/ml to 0.05 ug/ml",yellow
same,Colour of media in each well,"Table 24, sample ID 2, 22 hours at 37° C., plate configuration #1, row 7 of serial dilution 4 ug/ml to 0.05 ug/ml",yellow
same,Colour of media in each well,"Table 24, sample ID 2, 22 hours at 37° C., plate configuration #1, row 8 of serial dilution 4 ug/ml to 0.05 ug/ml",yellow
same,MIC,"clinical sample ID 1 (streptococci group D), 37° C. for 22 hours, plate configuration #1",0.1 µg/mL
same,MIC,"clinical sample ID 2 (streptococci group D, also coagulase positive Staph), 37° C. for 22 hours, plate configuration #1",> 4 µg/mL
same,MIC,"clinical sample ID 4 (coagulase positive Staph), 37° C. for 22 hours, plate configuration #1",> 4 µg/mL
same,MIC,"clinical sample ID 5 (streptococci group D), 37° C. for 23 hours, plate configuration #2",< 0.05 µg/mL
same,MIC,"clinical sample ID 7 (coagulase positive Staph), 37° C. for 23 hours, plate configuration #2",0.5 µg/mL
same,MIC,"clinical sample ID 8 (coagulase negative Staph and Streptococci group D), 37° C. for 23 hours, plate configuration #2",< 0.05 µg/mL
